This is an account of results in US8999957B2, “Heterocyclic compounds as ERK inhibitors” (Merck Sharp & Dohme Corp., priority 2010, dated 2015).

Each structure is given as a SMILES string. pIC50: −log10 of the molar value. Like-named read-outs stand apart in the source and are kept apart here.

In this assay the target is fully phosphorylated, mouse aERK2 enzyme (Mus musculus (Mouse), UniProt P63085). Kind of assay: Active ERK2 (aERK) IMAP-FP assay, condition 2. Format: biochemical. Here is the method:
Active ERK2 (aERK) Assay: (Unless Indicated Otherwise, the Data Provided for aERK was obtained using Condition 1)
Activated ERK2 activity was determined in an IMAP-FP assay (Molecular Devices). […] Phosphorylation reactions were allowed to proceed for 40-45 minutes and were immediately quenched by the addition of 60 μL IMAP detection beads (1:1000 dilutions) in IMAP binding buffer. Plates were read on EnVision reader after 30 minutes binding equilibration.

[1] abbreviates: active ERK2, read-out: aErk2 Ic50.
The mark [2] stands for this setting: aERK assay condition 2, 30 uM ATP, read-out: aERK IC50.

Chain of fully phosphorylated, mouse aERK2 enzyme (P63085 whole entry): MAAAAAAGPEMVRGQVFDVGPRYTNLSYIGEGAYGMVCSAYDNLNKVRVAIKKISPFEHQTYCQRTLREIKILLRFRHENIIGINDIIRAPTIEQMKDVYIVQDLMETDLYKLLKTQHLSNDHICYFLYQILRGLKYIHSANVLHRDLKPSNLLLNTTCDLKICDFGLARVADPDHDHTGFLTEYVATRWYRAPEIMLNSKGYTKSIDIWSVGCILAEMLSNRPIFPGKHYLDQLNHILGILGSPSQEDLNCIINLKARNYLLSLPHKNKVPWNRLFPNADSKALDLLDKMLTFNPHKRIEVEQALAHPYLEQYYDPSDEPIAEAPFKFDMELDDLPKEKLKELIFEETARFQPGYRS

In general, pIC50 refers to the negative decadic logarithm of the IC50, by convention in mol/L. Take `COc1cccc(F)c1CN1C[C@H](NC(=O)c2ccc3[nH]nc(-c4ccncc4)c3c2)CC[C@H]1C(=O)N1CCCCC1` [N-[(3R,6S)-1-(2-fluoro-6-methoxybenzyl)-6-(piperidin-1-ylcarbonyl)piperidin-3-yl]-3-pyridin-4-yl-1H-indazole-5-carboxamide]: the negative-log IC50 (pIC50) under setting [1] was 7.22.
For the compound `COc1cccc(F)c1CN1C[C@H](NC(=O)c2ccc3[nH]nc(-c4ccnc(C)c4)c3c2)CC[C@H]1C(=O)Nc1cccnc1` [N-[(3R,6S)-1-(2-fluoro-6-methoxybenzyl)-6-(pyridin-3-ylcarbamoyl)piperidin-3-yl]-3-(2-methylpyridin-4-yl)-1H-indazole-5-carboxamide], the pIC50 under setting [2] is 8.39.
Take `COc1cccc(F)c1CN1C[C@H](NC(=O)c2ccc3[nH]nc(-c4ccnc(C)c4)c3c2)CC[C@H]1C(=O)Nc1ccncc1` [N-[(3R,6S)-1-(2-fluoro-6-methoxybenzyl)-6-(pyridin-4-ylcarbamoyl)piperidin-3-yl]-3-(2-methylpyridin-4-yl)-1H-indazole-5-carboxamide]: the negative logarithm of the IC50 (pIC50) under setting [2] was 8.52.
Turning to `COc1cccc(F)c1CN1C[C@H](NC(=O)c2ccc3[nH]nc(-c4ccncc4)c3c2)CC[C@H]1C(=O)N1CCCC1` [N-[(3R,6S)-1-(2-fluoro-6-methoxybenzyl)-6-(pyrrolidin-1-ylcarbonyl)piperidin-3-yl]-3-pyridin-4-yl-1H-indazole-5-carboxamide], under setting [1], the pIC50 was 7.45.
Regarding `COc1cccc(F)c1CN1C[C@H](NC(=O)c2ccc3[nH]nc(-c4ccnc(C)c4)c3c2)CC[C@H]1C(=O)NCC1(CO)CCCC1` [N-[(3R,6S)-1-(2-fluoro-6-methoxybenzyl)-6-({[1-(hydroxymethyl)cyclopentyl]methyl}carbamoyl)piperidin-3-yl]-3-(2-methylpyridin-4-yl)-1H-indazole-5-carboxamide], the negative-log IC50 (pIC50) under setting [2] was 8.06.
The same measure, in the same setting: then `COc1cccc(F)c1CN1C[C@H](NC(=O)c2ccc3[nH]nc(-c4ccnc(C)c4)c3c2)CC[C@H]1C(=O)NC[C@@H]1CC[C@@H](O)C1` [N-[(3R,6S)-1-(2-fluoro-6-methoxybenzyl)-6-({[(1R,3R)-3-hydroxycyclopentyl]methyl}carbamoyl)piperidin-3-yl]-3-(2-methylpyridin-4-yl)-1H-indazole-5-carboxamide], with 8.82.
Take `COc1cccc(F)c1CN1C[C@H](NC(=O)c2ccc3[nH]nc(-c4ccnc(C)c4)c3c2)CC[C@H]1C(=O)NC[C@H]1CC[C@H](O)C1` [N-[(3R,6S)-1-(2-fluoro-6-methoxybenzyl)-6-({[(1S,3S)-3-hydroxycyclopentyl]methyl}carbamoyl)piperidin-3-yl]-3-(2-methylpyridin-4-yl)-1H-indazole-5-carboxamide]: the pIC50 under setting [2] was 8.89.
As to `CNC(=S)NNC(=O)[C@@H]1CC[C@@H](NC(=O)c2ccc3[nH]nc(-c4ccnc(C)c4)c3c2)CN1Cc1c(F)cccc1OC` [N-[(3R,6S)-1-(2-fluoro-6-methoxybenzyl)-6-{[2-(methylcarbamothioyl)hydrazino]-carbonyl}piperidin-3-yl]-3-(2-methylpyridin-4-yl)-1H-indazole-5-carboxamide], the pIC50 under setting [1] was 9.00.
Turning to `O=C(N[C@@H]1CC[C@@H](C(=O)NCc2ccccc2)N(Cc2ccccc2)C1)c1ccc2[nH]nc(-c3ccncc3)c2c1` [N-[(3R,6S)-1-benzyl-6-(benzylcarbamoyl)piperidin-3-yl]-3-pyridin-4-yl-1H-indazole-5-carboxamide], the negative logarithm of the IC50 (pIC50) under setting [1] is 7.32.
With `CCNC(=O)[C@@H]1CC[C@@H](NC(=O)c2ccc3[nH]nc(-c4ccncc4)c3c2)CN1Cc1ccccc1` [N-[(3R,6S)-1-benzyl-6-(ethylcarbamoyl)-piperidin-3-yl]-3-pyridin-4-yl-1H-indazole-5-carboxamide], the negative logarithm of the IC50 (pIC50) under setting [1] was 7.32.
For `COc1cccc(F)c1CN1C[C@H](NC(=O)c2ccc3[nH]nc(-c4ccnc(C)c4)c3c2)CC[C@H]1C(=O)N1CCC1` [N-[(3R,6S)-6-(azetidin-1-ylcarbonyl)-1-(2-fluoro-6-methoxybenzyl)piperidin-3-yl]-3-(2-methylpyridin-4-yl)-1H-indazole-5-carboxamide], the negative-log IC50 (pIC50) under setting [1] is 7.46.
For `COc1cccc(F)c1CN1C[C@H](NC(=O)c2ccc3[nH]nc(-c4ccnc(C)c4)c3c2)CC[C@H]1C(=O)NC1CC1` [N-[(3R,6S)-6-(cyclopropylcarbamoyl)-1-(2-fluoro-6-methoxybenzyl)piperidin-3-yl]-3-(2-methylpyridin-4-yl)-1H-indazole-5-carboxamide], the negative logarithm of the IC50 (pIC50) under setting [2] was 8.47.
For `CCCCN(CCCC)C(=O)[C@@H]1CC[C@@H](NC(=O)c2ccc3[nH]nc(-c4ccnc(C)c4)c3c2)CN1Cc1c(F)cccc1OC` [N-[(3R,6S)-6-(dibutylcarbamoyl)-1-(2-fluoro-6-methoxybenzyl)piperidin-3-yl]-3-(2-methylpyridin-4-yl)-1H-indazole-5-carboxamide], the negative logarithm of the IC50 (pIC50) under setting [1] is 6.30.
On to `CCN(CC)C(=O)[C@@H]1CC[C@@H](NC(=O)c2ccc3[nH]nc(-c4ccnc(C)c4)c3c2)CN1Cc1c(F)cccc1F` [N-[(3R,6S)-6-(diethylcarbamoyl)-1-(2,6-difluorobenzyl)piperidin-3-yl]-3-(2-methylpyridin-4-yl)-1H-indazole-5-carboxamide], for which, under setting [1], the pIC50 is 7.09.
As for `CCN(CC)C(=O)[C@@H]1CC[C@@H](NC(=O)c2ccc3[nH]nc(-c4ccc5nc(C)sc5c4)c3c2)CN1Cc1c(F)cccc1OC` [N-[(3R,6S)-6-(diethylcarbamoyl)-1-(2-fluoro-6-methoxybenzyl)piperidin-3-yl]-3-(2-methyl-1,3-benzothiazol-6-yl)-1H-indazole-5-carboxamide], the pIC50 under setting [1] was 7.48.
On the same count and under the same terms, then `CCN(CC)C(=O)[C@@H]1CC[C@@H](NC(=O)c2ccc3[nH]nc(-c4ccnc(C)c4)c3c2)CN1Cc1c(F)cccc1OC` [N-[(3R,6S)-6-(diethylcarbamoyl)-1-(2-fluoro-6-methoxybenzyl)piperidin-3-yl]-3-(2-methylpyridin-4-yl)-1H-indazole-5-carboxamide], with 7.79; and `CCN(CC)C(=O)[C@@H]1CC[C@@H](NC(=O)c2ccc3[nH]nc(-c4ccnnc4)c3c2)CN1Cc1c(F)cccc1OC` [N-[(3R,6S)-6-(diethylcarbamoyl)-1-(2-fluoro-6-methoxybenzyl)piperidin-3-yl]-3-pyridazin-4-yl-1H-indazole-5-carboxamide], with 6.86.
`CCN(CC)C(=O)[C@@H]1CC[C@@H](NC(=O)c2ccc3[nH]nc(-c4ccncc4)c3c2)CN1Cc1c(F)cccc1OC` [N-[(3R,6S)-6-(diethylcarbamoyl)-1-(2-fluoro-6-methoxybenzyl)piperidin-3-yl]-3-pyridin-4-yl-1H-indazole-5-carboxamide]: the negative logarithm of the IC50 (pIC50) under setting [1] was 7.74.
Same read-out and setting: then `CCN(CC)C(=O)[C@@H]1CC[C@@H](NC(=O)c2ccc3[nH]nc(-c4ccnc(C)c4)c3c2)CN1Cc1ccccc1F` [N-[(3R,6S)-6-(diethylcarbamoyl)-1-(2-fluorobenzyl)piperidin-3-yl]-3-(2-methylpyridin-4-yl)-1H-indazole-5-carboxamide], with 7.70; and `CCN(CC)C(=O)[C@@H]1CC[C@@H](NC(=O)c2ccc3[nH]nc(-c4ccnc(C)c4)c3c2)CN1CCc1ccccc1` [N-[(3R,6S)-6-(diethylcarbamoyl)-1-(2-phenylethyl)piperidin-3-yl]-3-(2-methylpyridin-4-yl)-1H-indazole-5-carboxamide], with 6.80.
`COc1cccc(F)c1CN1C[C@H](NC(=O)c2ccc3[nH]nc(-c4ccc5nc(C)sc5c4)c3c2)CC[C@H]1C(=O)N(C)C` [N-[(3R,6S)-6-(dimethylcarbamoyl)-1-(2-fluoro-6-methoxybenzyl)piperidin-3-yl]-3-(2-methyl-1,3-benzothiazol-6-yl)-1H-indazole-5-carboxamide]: under setting [1], the negative logarithm of the IC50 (pIC50) was 7.32.
On the same count and under the same terms, the same measure for `COc1cccc(F)c1CN1C[C@H](NC(=O)c2ccc3[nH]nc(-c4ccnc(C)c4)c3c2)CC[C@H]1C(=O)N(C)C` [N-[(3R,6S)-6-(dimethylcarbamoyl)-1-(2-fluoro-6-methoxybenzyl)piperidin-3-yl]-3-(2-methylpyridin-4-yl)-1H-indazole-5-carboxamide]: 7.42.
Take `COc1cccc(F)c1CN1C[C@H](NC(=O)c2ccc3[nH]nc(-c4ccnnc4)c3c2)CC[C@H]1C(=O)N(C)C` [N-[(3R,6S)-6-(dimethylcarbamoyl)-1-(2-fluoro-6-methoxybenzyl)piperidin-3-yl]-3-pyridazin-4-yl-1H-indazole-5-carboxamide]: under setting [1], the negative logarithm of the IC50 (pIC50) is 6.86.
For `COc1cccc(F)c1CN1C[C@H](NC(=O)c2ccc3[nH]nc(-c4ccncc4)c3c2)CC[C@H]1C(=O)N(C)C` [N-[(3R,6S)-6-(dimethylcarbamoyl)-1-(2-fluoro-6-methoxybenzyl)piperidin-3-yl]-3-pyridin-4-yl-1H-indazole-5-carboxamide], the pIC50 under setting [1] was 7.74.
`Cc1cc(-c2n[nH]c3ccc(C(=O)N[C@@H]4CC[C@@H](C(=O)N(C)C)N(Cc5ccccc5F)C4)cc23)ccn1` [N-[(3R,6S)-6-(dimethylcarbamoyl)-1-(2-fluorobenzyl)piperidin-3-yl]-3-(2-methylpyridin-4-yl)-1H-indazole-5-carboxamide]: the pIC50 under setting [1] is 7.40.
Take `Cc1cc(-c2n[nH]c3ccc(C(=O)N[C@@H]4CC[C@@H](C(=O)N(C)C)N(CCc5ccccc5)C4)cc23)ccn1` [N-[(3R,6S)-6-(dimethylcarbamoyl)-1-(2-phenylethyl)piperidin-3-yl]-3-(2-methylpyridin-4-yl)-1H-indazole-5-carboxamide]: under setting [1], the negative-log IC50 (pIC50) is 6.88.
As for `Cc1cc(-c2n[nH]c3ccc(C(=O)N[C@@H]4CC[C@@H](C(=O)N(C)C)N(Cc5cccs5)C4)cc23)ccn1` [N-[(3R,6S)-6-(dimethylcarbamoyl)-1-(thiophen-2-ylmethyl)piperidin-3-yl]-3-(2-methylpyridin-4-yl)-1H-indazole-5-carboxamide], the pIC50 under setting [1] is 7.84.
Regarding `CCCN(CCC)C(=O)[C@@H]1CC[C@@H](NC(=O)c2ccc3[nH]nc(-c4ccnc(C)c4)c3c2)CN1Cc1c(F)cccc1OC` [N-[(3R,6S)-6-(dipropylcarbamoyl)-1-(2-fluoro-6-methoxybenzyl)piperidin-3-yl]-3-(2-methylpyridin-4-yl)-1H-indazole-5-carboxamide], the negative logarithm of the IC50 (pIC50) under setting [1] was 6.85.
